Test results: patent US5780008A, “Polyhdric phenol compounds” (Mallinckrodt Medical, Inc., priority 1997, dated 1998)

Legend:
[1] = tested on: hexokinase; assay: hexokinase-model: inhibition of hexokinase catalysed 6-phosphorilation of glucose; format: biochemical
Text: The "hexokinase-model" is used as a model system for the glucose-transport proteins, which play a paramount role in the glucose metabolism.

[2] = tested on: erythrocytes; assay: binding of 3-125I-phloretin to erythrocytes; parameters: species or system human
Protocol: (§1) In order to be able to compare the binding to cancer cells with the binding to normal cells, the following experiments are carried out. Binding to certain cancer cells, viz. YAK1 mice lymphoma cells (10^6 cells/ml incubation medium) is compared with binding to erythrocytes of a young healthy person (10^6 cells/ml incubation medium), because erythocytes are typical reference cells for glucose transport studies.
(§2) The incubation media are respectively:
(§3) RPMI buffer pH=8; 11 mM in glucose, and
(§4) RPMI buffer/0.9% NaCl : 1/1.
(§5) Each 1 ml essay contains 5% of foetal calf serum and is spiked (50 μl) with 3-^125 I-phloretin (initial activity is measured). After 15 min incubation at 37° C., the suspension is centrifuged and the precipitate is resuspended with 1 ml cold buffer which is discarded after a second centrifugation. The final radioactive precipitate is suspended in 1 ml water and measured. The bound radioactivity is related to the initial activity.
Saturation binding of 3-^125 I-phloretin to 5.10^6 erythrocytes is performed in RPMI-buffer and Tris-buffer of pH 8. The binding experiments are performed at pH 8, because this is the pH of the RPMI buffer needed for optimum YAK1 cells growth. Incubation for 15 min at 37° C. Inhibition is studied by pre-incubation (15 min, 37° C.) of the erythrocytes in buffer containing 2.10^-4 M 3-Br-phloretin. After centrifugation, the Br-phloretin--containing solution is discarded and the precipitate washed with ice-cooled buffer. After a second centrifugation, the supernatant is discarded and the cells are resuspended in buffer containing 3-^125 I-phloretin. After incubation for 15 min at 37° C., the same above procedure is applied.
Phloretin is a weak acid (pK is approx. 7.3); only the uncharged (non-dissociated) form inhibits red cell glucose transport (Jennings et al., see above). Therefore the values mentioned hereinafter are corrected for dissociation.

[3] = tested on: YAK1 mice lymphoma cells; assay: binding of 3-125I-phloretin to YAK1 lymphoma cancer cells
Protocol: as §1, §2, §3, §4, §5

[4] = in vivo distribution studies in rats
Protocol: The in vivo distribution in rats is determined by injecting approx. 10μCi of the compound to be evaluated into the tail vein of the test animals. The test animals are sacrificed at appropriate time intervals after injection and the radioactivity of the organs of interest is measured by gamma scintillation counting.

[5] = binding in human whole blood (RB/plasma distribution, reversibility); format: in vitro ADME
Protocol: Jennings et al. [J. Gen. Phys., […], 67, 381]have reported the binding of phloretin to whole red blood cells. Their results let to assume that phloretin should enter the erythrocytes and bind to haemoglobine. This should mean that a phloretin-based radiotracer should not be suitable for in vivo use. Therefore the reversibility of the binding is checked. For this purpose 3-^125 I-phloretin is added to whole heparinised blood. This is centrifuged, yielding serum S-*I and red blood portion RB-*I. S-*I and non-radioactive RB (1/1) and respectively non-radioactive S and RB-*I (1/1) are incubated at 37° C. for 15 min and centrifuged. The radioactivity of all the weighed aliquots is measured in a well NaI(Tl) detector.

SMILES: O=C(CCc1ccc(O)c(I)c1)c1c(O)cc(O)cc1O [3-I-phloretin]
- inhibition potency for hexokinase relative to the original phloretin ([1]; versus phloretin): approx. 2 times

SMILES: O=C(CCc1ccc(O)c(Br)c1)c1c(O)cc(O)cc1O [3-Br-phloretin, 3-bromophloretin]
- bound/free value of 3-125I-phloretin after pre-incubation with inhibitor ([2]; pre-incubation with 2×10^-4 M, 15 min 37° C., blank 0.193, average of 5 experiments): 0.081
- inhibition of 3-125I-phloretin binding to erythrocytes ([2]; pre-incubation with 2×10^-4 M, compared with blank): 58%
- decreased binding of 3-125I-phloretin to YAK1 cells ([3]; co-incubation of 3-Br-phloretin, 15 min): 30%

SMILES: O=C(CCc1ccc(O)c([125I])c1)c1c(O)cc(O)cc1O [3-^125 I-phloretin]
- uptake in the heart and muscle in the presence of Br-phloretin (C.A.) ([4]; C.A. versus N.C.A.): decreased uptake
- uptake in the lungs (lung versus blood) ([4]; approx. 10μCi into the tail vein): high uptake
- nature of binding to plasma-proteins and RB [5]: bound reversibly
- high affinity binding in the presence of serum albumine ([2]; at equilibrium): remains unchanged
- influence of glucose on binding ([2]; presence of 3.10^-3 -5.10^-3 M glucose): hardly influences
- Bmax ([2]; saturation binding 0.1 to 1.2 10^-10 M, Scatchard plot, pH 8): 4.7×10^-15 mol/10^6 erythrocytes
- increase of uptake to YAK1 lymphoma cancer cells as compared to erythrocytes ([3]; YAK1 cells versus erythrocytes): > 2 factor

SMILES: O=C(CCc1ccc(O)cc1)c1c(O)cc(O)cc1O [phloretin, reference compound]
- type of inhibition of hexokinase activity ([1]; from Lineweaver-Burck plots, with respect to glucose): competitive
